Assay results taken from patent US7396848B1, “Neurotrophin production/secretion promoting agent” (Takeda Pharmaceutical Company Limited, priority 2000, dated 2008).

system: BDNF; assay: BDNF production/secretion promoting activity in cultured Schwann cells (enzyme immunoassay of culture fluid); format: cell-based, SD rats; conditions: 24 hours, concentrations of 10^−4 M to 10^−8 M, result in words

Row | SMILES | BDNF production/secretion promoting activity
1 | COc1ccccc1OCCCc1oc(-n2ccnc2C)nc1-c1ccc(Cl)cc1 [Compound (1), 4-(4-chlorophenyl)-5-[3-(2-methoxyphenoxy)propyl]-2-(2-methyl-1-imidazolyl)oxazole] | excellent

system: not given; assay: not given; conditions: not given

Row | SMILES | melting point [°C]
2 | CCOC(=O)C1CCN(c2nc(-c3ccc(Cl)cc3)c(CCCOc3ccccc3OC)o2)CC1 [Example 40, ethyl N-[4-(4-chlorophenyl)-5-[3-(2-methoxyphenoxy)propyl]-2-oxazolyl]isonipecotate] | 80 to 81
3 | COc1ccccc1OCCCc1oc(-n2cnc(-c3ccccc3)c2-c2ccccc2)nc1-c1ccc(Cl)cc1 [Example 42, 4-(4-chlorophenyl)-2-(4,5-diphenyl-1-imidazolyl)-5-[3-(2-methoxyphenoxy)propyl]oxazole] | 118 to 119
4 | Cc1ccccc1OCCCc1oc(-n2ccnc2)nc1-c1ccc(Cl)cc1 [Example 55, 4-(4-chlorophenyl)-2-(1-imidazolyl)-5-[3-(2-methylphenoxy)propyl]oxazole] | 113 to 114
5 | Cc1nccn1-c1nc(-c2ccc(Cl)cc2)c(CCCOc2ccccc2O)o1 [Example 61, 4-(4-chlorophenyl)-5-[3-(2-hydroxyphenoxy)propyl]-2-(2-methyl-1-imidazolyl)oxazole] | 110 to 111
6 | CCCc1nccn1-c1nc(-c2ccc(Cl)cc2)c(CCCOc2ccccc2OC)o1 [Example 83, 4-(4-chlorophenyl)-5-[3-(2-methoxyphenoxy)propyl]-2-(2-propyl-1-imidazolyl)oxazole] | 89 to 90
7 | Cc1ccccc1OCCCc1sc(-n2ccnc2C)nc1-c1ccc(Cl)cc1 [Example 96, 4-(4-chlorophenyl)-2-(2-methyl-1-imidazolyl)-5-[3-(2-methylphenoxy)propyl]thiazole] | 112 to 113
8 | Cc1nccn1-c1nc(-c2ccc(Cl)s2)c(CCCCO)o1 [Example 99, 4-(5-chloro-2-thienyl)-2-(2-methyl-1-imidazolyl)-5-oxazolebutanol] | 77 to 79
9 | Cc1cccc(Cl)c1CCCOc1oc(-n2ccnc2C)nc1-c1ccc(Cl)cc1 [Example 109, 5-[3-(2-chloro-6-methylphenyl)propyloxy]-4-(4-chlorophenyl)-2-(2-methyl-1-imidazolyl)oxazole] | 115 to 116
10 | Cc1cc(O)ccc1OCCCc1oc(-n2ccnc2C)nc1-c1ccc(Cl)cc1 [Example 113, 4-[3-[4-(4-chlorophenyl)-2-(2-methyl-1-imidazolyl)-5-oxazolyl]propyloxy]-3-methylphenol] | 175 to 176
11 | COC(=O)CCc1oc(-n2ccnc2C)nc1-c1ccc(C(F)(F)F)cc1 [Example 116, methyl 2-(2-methyl-1-imidazolyl)-4-(4-trifluoromethylphenyl)-5-oxazolepropionate] | 94 to 95
12 | Cc1nccn1-c1nc(-c2ccc(C(F)(F)F)cc2)c(CCCO)o1 [Example 118, 2-(2-methyl-1-imidazolyl)-4-(4-trifluoromethylphenyl)-5-oxazolepropanol] | 127 to 129
13 | Cc1nccn1-c1nc(-c2ccc(Cl)c(Cl)c2)c(CCCO)o1 [Example 119, 4-(3,4-dichlorophenyl)-2-(2-methyl-1-imidazolyl)-5-oxazolepropanol] | 140 to 141

Next, values leading:

Row | melting point [°C] | SMILES
14 | 114 to 115 | CCOC(=O)CCCc1sc(N)nc1-c1ccc(Cl)cc1 [Example 22, ethyl 2-amino-4-(4-chlorophenyl)-5-thiazolebutanoate]
15 | 98 to 99 | Cc1nccn1-c1nc(-c2ccc(Cl)cc2)c(CCCCO)s1 [Example 24, 4-(4-chlorophenyl)-2-(2-methyl-1-imidazolyl)-5-thiazolebutanol]
16 | 81 to 82 | COc1ccccc1OCCCc1oc(N2CCOCC2)nc1-c1ccc(Cl)cc1 [Example 39, 4-(4-chlorophenyl)-2-(4-morpholinyl)-5-[3-(2-methoxyphenoxy)propyl]oxazole]
17 | 91 to 92 | CCc1nccn1-c1nc(-c2ccc(Cl)cc2)c(CCCOc2ccccc2C)o1 [Example 56, 4-(4-chlorophenyl)-2-(2-ethyl-1-imidazolyl)-5-[3-(2-methylphenoxy)propyl]oxazole]
18 | 78 to 79 | CCc1nccn1-c1nc(-c2ccc(Cl)cc2)c(CCCOc2ccccc2OC)o1 [Example 57, 4-(4-chlorophenyl)-2-(2-ethyl-1-imidazolyl)-5-[3-(2-methoxyphenoxy)propyl]oxazole]
19 | 90 to 91 | CCOC(=O)c1nccn1-c1nc(-c2ccc(Cl)cc2)c(CCCOc2ccccc2OC)o1 [Example 69, ethyl 1-[4-(4-chlorophenyl)-5-[3-(2-methoxyphenoxy)propyl]-2-oxazolyl]imidazole-2-carboxylate]
20 | 103 to 104 | Cc1cc(C)n(-c2nc(-c3ccc(Cl)cc3)c(CCCOc3ccccc3C)o2)n1 [Example 72, 4-(4-chlorophenyl)-2-(3,5-dimethyl-1-pyrazolyl)-5-[3-(2-methylphenoxy)propyl]oxazole]
21 | 53 to 54 | CCCCCCCCCCCc1nccn1-c1nc(-c2ccc(Cl)cc2)c(CCCOc2ccccc2OC)o1 [Example 84, 4-(4-chlorophenyl)-5-[3-(2-methoxyphenoxy)propyl]-2-(2-undecyl-1-imidazolyl)oxazole]
22 | 119 to 120 | Cc1nccn1-c1nc(-c2ccc(Cl)cc2)c(CCCOc2ccccc2CCCO)o1 [Example 93, 4-(4-chlorophenyl)-5-[3-(2-(3-hydroxypropyl)phenoxy)propyl]-2-(2-methyl-1-imidazolyl)oxazole]
23 | 184 to 185 | Cc1nccn1-c1nc(-c2ccc(Cl)cc2)c(CCCOc2ccccc2CCC(=O)O)o1 [Example 94, 3-[2-[3-[4-(4-chlorophenyl)-2-(2-methyl-1-imidazolyl)-5-oxazolyl]propoxy]phenyl]propionic acid]
24 | 97 to 98 | Cc1nccn1-c1nc(-c2ccc(F)cc2)c(CCCCO)o1 [Example 102, 4-(4-fluorophenyl)-2-(2-methyl-1-imidazolyl)-5-oxazolebutanol]
25 | 116 to 117 | COC(=O)CCc1oc(-n2ccnc2C)nc1-c1ccc(Cl)c(Cl)c1 [Example 117, methyl 4-(3,4-dichlorophenyl)-2-(2-methyl-1-imidazolyl)-5-oxazolepropionate]

system: NGF; assay: NGF production/secretion promoting activity in cultured Schwann cells (enzyme immunoassay of culture fluid); format: cell-based, SD rats; conditions: 24 hours, concentrations of 10^−4 M to 10^−8 M, result in words
Experimental: Schwann cells were prepared by subjecting the dorsal spinal root ganglion collected from 10 newborn SD rats to enzyme treatment using 0.25% trypsin containing 0.01% deoxyribonuclease (DNase, produced by Sigma), followed by cloning from the cell group obtained. […]
The culture fluid obtained in each run of Reference Example 1A was recovered and assayed for the neurotrophin content therein. […] After washing, 30 μl of 4-methylumbelliferyl-β-D-galactoside (produced by Sigma) (10 μg/μl) was added to the substrate, the reaction was allowed to proceed at room temperature for 4 hours and then terminated by addition of 130 μl of 0.1 M glycine-sodium hydroxide buffer (pH 10.3), and the fluorescent intensity of the 4-methylumbelliferone produced was determined (Ex: 360 nm; Em: 450 nm). The amount of NGF was calculated based on a standard curve and expressed in terms of relative multiplicity in relation to the amount of NGF (control) produced and secreted by cells treated in the same manner without adding the test compound. […]

Row | SMILES | NGF production/secretion promoting activity
26 | COc1ccccc1OCCCc1oc(-n2ccnc2C)nc1-c1ccc(Cl)cc1 [Compound (1), 4-(4-chlorophenyl)-5-[3-(2-methoxyphenoxy)propyl]-2-(2-methyl-1-imidazolyl)oxazole] | excellent
